Measured values published in US20100099756A1, “USES OF INCENSOLE, INCENSOLE ACETATE AND DERIVATIVES THEREOF” (YISSUM RESEARCH DEVELOPMENT COMPANY OF THE HEBREW …, priority 2006, published 2010).

Key:
[1] = target: T1, mouse TRPV3-YFP (Mus musculus, UniProt Q8K424); assay: Whole-cell voltage-clamp, TRPV3-YFP expressing HEK293 cells; type: cell-based; details: IA 200 μM; 2-APB 100 μM; charge −85 to −45 mV
T1 construct: expressed in transfected cells
T1 sequence (Q8K424 1-791): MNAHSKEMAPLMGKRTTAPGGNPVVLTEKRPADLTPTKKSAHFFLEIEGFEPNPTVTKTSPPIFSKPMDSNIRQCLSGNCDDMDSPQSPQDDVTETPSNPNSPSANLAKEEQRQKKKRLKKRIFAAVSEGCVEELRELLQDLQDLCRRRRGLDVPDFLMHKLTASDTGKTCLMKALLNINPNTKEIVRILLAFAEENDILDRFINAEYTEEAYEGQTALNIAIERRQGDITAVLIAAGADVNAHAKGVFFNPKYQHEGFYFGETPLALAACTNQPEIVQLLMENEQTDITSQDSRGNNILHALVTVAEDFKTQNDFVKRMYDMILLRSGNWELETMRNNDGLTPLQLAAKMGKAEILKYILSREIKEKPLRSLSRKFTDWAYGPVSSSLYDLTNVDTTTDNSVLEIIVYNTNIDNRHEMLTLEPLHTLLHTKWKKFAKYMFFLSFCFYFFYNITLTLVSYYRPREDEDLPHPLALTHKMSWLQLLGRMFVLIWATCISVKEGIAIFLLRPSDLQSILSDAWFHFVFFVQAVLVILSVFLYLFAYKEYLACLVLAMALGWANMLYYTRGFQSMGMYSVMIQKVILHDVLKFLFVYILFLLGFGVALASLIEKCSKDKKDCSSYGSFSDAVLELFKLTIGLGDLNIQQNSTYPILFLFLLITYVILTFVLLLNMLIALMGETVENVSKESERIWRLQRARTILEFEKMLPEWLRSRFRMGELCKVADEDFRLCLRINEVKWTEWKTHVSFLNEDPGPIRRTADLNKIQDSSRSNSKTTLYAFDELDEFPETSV
Method: Electrophysiological recording. Currents were recorded using whole-cell voltage-clamp. Pipettes were pulled from microcapillary glass (A-M Systems). A coverslip containing cells was transferred to a 300 μL chamber that was constantly perfused (1-2 mL/min) with external solution. Voltage protocols were generated and data were digitized and recorded using Pulse (HEKA Elektronik) software in conjunction with an Axopatch 200A amplifier (Axon Instruments), and the data analyzed using an in-house Visual Basic (Microsoft) analysis program.
The external solution contained (in mM): 120 NaCl, 5 KCl, 1 MgCl2, 2 CaCl2, 10 Glucose and 20 HEPES, pH 7.4 with NaOH. The measured charge (pC) was defined as the charge elicited between -85 and -45 mV by a ramping voltage stimulus (−85 mV to +35 mV, 0.54 mV/msec; holding potential -55 mV). Currents were sampled at 5 kHz. Experimental and control cells were alternated whenever possible. Control values were obtained from adjacent cells with no detectable YFP fluorescence, presumed to be non-TRPV3-expressing.

[2] = tested on: ROS generation; assay: ROS production by zymosan-activated RAW 264.7 macrophages (chemiluminescence); type: cell-based, mice
Method: (A(1)) Representative Western Blot bands of Cox2 are shown with tubulin as reference. (A(2)) COX-2 levels were measured in RAW 264.7 cells incubated for 24 hrs. with LPS in the presence or in the absence of IA (60 μM/ml); **, p<0.001. (B) Murine peritoneal macrophages were activated by LPS (1 μg/ml for 24 hrs.) in absence of IA or in the presence of IA at indicated concentrations. NO generation was determined by measuring the nitrite accumulated in the supernatants; **, p<0.001. (C) Generation of ROS by RAW 264.7 macrophages (5×10^5 cells in 0.5 ml Hanks' balanced salt solution) was measured by chemiluminescence. Cells were pre-incubated with various doses of IA for 24 hrs before luminol (10 μl) and zymosan (30 μl) were added to the tubes; *, p<0.05; **, p<0.01; ***, p<0.001
ROS (Reactive Oxygen Species) Production by RAW 264.7 Macrophages. Raw 264.7 cells were scrapped, washed and resuspended in Hanks' balanced salt solution (without phenol red). For measurement of chemiluminescence, 0.5 ml of cell suspension (5×10^5 cells) was added to each luminometer tube, together with various doses of IA tested (dissolved in ethanol and further diluted with Hanks). […] 10 μl of luminol (Sigma, St. Louis, USA) and 30 μl of zymosan (Sigma, St. Louis, USA) were added to the tubes, and the chemiluminescence was measured immediately in a luminometer (Biolumate LB 95, Berhold, Wilbad, Germany).

[3] = tested on: inflamed paw; assay: Inflamed paw model (carrageenin) in mice; type: in vivo, Sabra female mice
Method: IA (50 mg/kg) or vehicle were injected i.p. to Sabra female mice (5 per group) 30 min before induction of the inflammatory stimulus. Hind paws were then injected with 50 μl of saline or λ-carrageenin (4%). Ensuing inflammatory swelling was measured by increase in foot volume in a plethysmometer. […] There were highly significant effects of treatment (F=11.7, df=3.64, P<0.001). *, different from IA +saline, P<0.05; **, ***, different from vehicle+saline at P<0.01, P<0.001 respectively; #, different from vehicle+carrageenin, P<0.05.
Inflamed Paw Model. Sabra female mice were used to assess the response to IA or vehicle in an in vivo model of inflammation. Drug or vehicle was administered 30 min before induction of the inflammatory stimulus. Mice (5 per group) were injected i.p. with vehicle (isopropanol:Emulphor:saline=1:1:18) or with vehicle containing IA (50 mg/kg, i.p). Emulphor (a polyethoxylated vegetable oil) is a commercial emulsifier. Hind paws were injected with 50 μl of saline (left or right alternatively) or λ-carrageenin (4%, right or left alternatively), using 26G needles. Ensuing inflammatory swelling was measured by increase in foot volume in a plethysmometer (Ugo-Basile, Italy). Paw volume as well as redness (as a measure of erythema) and licking (as a measure of pain) were assayed before carrageenin application and every 60 min until 4 hrs.

[4] = General toxicity in mice; type: in vivo; details: single dose 150 mg/kg and 30 mg/kg 3 times a week for a month

CC(=O)OC1CC/C(C)=C/CC/C(C)=C/CC2(C(C)C)CCC1(C)O2 (stereo not drawn) [IA, incensole acetate]
current activation in TRPV3(+) HEK293 cells [1]: activation of currents | inhibition at 60 µM ([2]; Mus musculus, RAW264.7, at 60 μM, p=0.0021): ~45% | ROS generation, dose dependence ([2]; three concentrations, 24 hrs pre-incubation, ANOVA P<0.0001): significant dose-dependent inhibitory effect | inflammation (inflamed paw volume) ([3]; 50 mg/kg i.p. 30 min before carrageenin, 4 hrs period): significantly reduced inflammation | other inflammatory parameters, such as redness and pain ([3]; 50 mg/kg i.p., data not shown): significantly reduced | weight loss [4]: No weight loss was observed
